The record followed here is patent US20250113823A1, “Arthropod Control Compositions” (priority 2022, published 2025).

In one experiment the test system is Aedes aegypti. Put plainly: Warm Body assay, mosquito landings on treated warm body. The class given is in vivo. To be noted: for pest or weed control at 16 µg/mL / pest or weed control at 400 µg/mL / pest or weed control at 10000 µg/mL / pest or weed control at 1 % / pest or weed control at 0.04 % / pest or weed control at 0.0016 %: Aedes aegypti; for pest or weed control at 16 µg/mL / pest or weed control at 400 µg/mL / pest or weed control at 10000 µg/mL: read-out: Percentage of repellence of mosquitoes Aedes aegypti landing on the warm body; for pest or weed control at 1 % / pest or weed control at 0.04 %: read-out: repellence; for pest or weed control at 0.0016 %: read-out: reduce the number of mosquito landings. As for the experimental part: The arthropod controlling effect according to the present invention is determined on mosquitoes using an adapted Warm Body assay as defined in Kröber T, Kessler S, Frei J, Bourquin M, Guerin PM. An in vitro assay for testing mosquito controlling compounds employing a warm body and carbon dioxide as a behavioral activator. J Am Mosq Control Assoc. 2010; 26: 381-386. Further information is provided in the accompanying examples
The controlling effect, repellence & spatial repellence, according to the present invention is determined by testing the Warm Body assay against the yellow fever mosquito, Aedes aegypti Rockefeller strain. […] Observations of controlling efficacy were made on host-seeking females of uniform age, 5 to 10 days old selected as mentioned in the publication mentioned hereinabove. Tested hungry females had access to 10% sugar solution but were not blood-fed. Further information is provided in the accompanying examples.
The published protocol has been adapted in not manually counting the landing mosquitoes but automatically using an automatic counting software, the switch from Anopheles gambiae to A. aegypti led to a decrease of mosquitoes' number placed in the tested cage due to the size difference (i.e. 30 mosquitoes instead of 50) and to an increase of lighting as A. aegypti is a diurnal mosquitoes (i.e. 150 lux instead of 4 lux). Further information is provided in the accompanying examples. […]
(§1) The controlling effect according to the present invention was assessed using an adapted Warm Body assay as defined in Kröber T, Kessler S, Frei J, Bourquin M, Guerin P M. 2010. J Am Mosq Control Assoc. 26: 381-386. In this in-vitro assay the number of mosquito landing on a warm body, simulating an attractive host treated with the tested stimuli, was measured in order to assess the repellence effect.
The published protocol has been adapted as the switch from Anopheles gambiae to Aedes aegypti led to a decrease of mosquitoes placed in the tested cage due to the size difference (i.e. 30 mosquitoes instead of 50) and to an increase of lighting since A. aegypti is a diurnal mosquitoes (i.e. 150 lux instead of 4 lux).
(§2) On the sandblasted glass Petri dish covering the warm body (28.3 cm^2), 100 μL of the compounds diluted at different concentrations in ethanol was applied. The number of mosquito landing on the warm body was counted for each stimulus and pure ethanol (solvent) as control.

For another experiment, the system named is Anopheles gambiae. The description is as above. It is filed as in vivo. The following applies: Anopheles gambiae, read-out: Percentage of repellence of mosquitoes Anopheles gambiae landing on the warm body; for pest or weed control at 178 µg/mL: 0.178 mg/mL (Table 4); for pest or weed control at 267 µg/mL: 0.267 mg/mL (Table 4); for pest or weed control at 400 µg/mL: 0.4 mg/mL (Table 4); for pest or weed control at 4470 µg/mL: 4.47 mg/mL (Table 4); for pest or weed control at 10000 µg/mL: 10 mg/mL (Table 4). As for the experimental part:
Anopheles gambiae is also a model organism as it is anthropophilic and transmits malaria.
as §1, §2

The next experiment relates to Ixodes ricinus. Put plainly: Warm Plate assay, tick repellence. The following applies: for pest or weed control at 400 µg/mL / pest or weed control at 2000 µg/mL / pest or weed control at 10000 µg/mL: Ixodes ricinus, read-out: Percentage of repellence of ticks Ixodes ricinus on the warm plate.
[1] abbreviates: highest tested concentration, 1% (Table 3).
Setting [2] is: intermediate concentration of 0.04% (Table 3).
The mark [3] stands for this setting: lowest concentration of 0.0016% (Table 3).

Read-outs that look alike come from different tables or passages of the source. A value given as a limit tells only on which side of the number the result lay.

In the case of `COc1ccc(CC(=O)O)cc1OC` [compound 1564, 2-(3,4-dimethoxyphenyl)acetic acid], the pest or weed control at 16 µg/mL in the experiment on Aedes aegypti (0.016 mg/mL (Table 3)) was found to be 24%. Also, in the experiment with Aedes aegypti (0.4 mg/mL (Table 3)), the pest or weed control at 400 µg/mL stood at 69%. Also, the pest or weed control at 10000 µg/mL in the experiment with Aedes aegypti (10 mg/mL (Table 3)) is 82%. Further, in the experiment on Anopheles gambiae, the pest or weed control at 178 µg/mL was 42%, the pest or weed control at 267 µg/mL was 58%, the pest or weed control at 400 µg/mL is 9% and the pest or weed control at 4470 µg/mL worked out at 97%. The pest or weed control at 10000 µg/mL in the experiment with Anopheles gambiae is 97%.
For the molecule `CCOCc1ccc(O)c(OCC)c1` [compound 1482, 2-ethoxy-4-(ethoxymethyl)phenol], in the experiment with Aedes aegypti (0.016 mg/mL (Table 3)), the pest or weed control at 16 µg/mL came to 31%. Besides, in the experiment with Aedes aegypti (0.4 mg/mL (Table 3)), the pest or weed control at 400 µg/mL came out at 82%. The pest or weed control at 10000 µg/mL in the experiment on Aedes aegypti (10 mg/mL (Table 3)) worked out at 96%. Further, the pest or weed control at 1 % in the experiment with Aedes aegypti (setting [1]) is above 90%. The pest or weed control at 0.04 % with Aedes aegypti (setting [2]) was above 75%. For the same molecule, in the experiment with Ixodes ricinus, the pest or weed control at 400 µg/mL was found to be 30.8%, the pest or weed control at 2000 µg/mL was 66.7% and the pest or weed control at 10000 µg/mL was 100%. Also, the ticks repelled result in the experiment with Ixodes ricinus (concentration of 1% (Table 10)) is “repel all the ticks”.
As for `COc1cc(C(C)=O)ccc1O` [compound 1468, 1-(4-hydroxy-3-methoxyphenyl)ethanone], the pest or weed control at 16 µg/mL in the experiment with Aedes aegypti (0.016 mg/mL (Table 3)) was found to be 64%. In the experiment with Aedes aegypti (0.4 mg/mL (Table 3)), the pest or weed control at 400 µg/mL worked out at 74%. Besides, in the experiment on Aedes aegypti (10 mg/mL (Table 3)), the pest or weed control at 10000 µg/mL was determined as 90%. Moreover, the pest or weed control at 0.0016 % with Aedes aegypti (setting [3]) was above 50%. In the experiment on Anopheles gambiae, the pest or weed control at 4470 µg/mL was determined as 59% and the pest or weed control at 10000 µg/mL came out at 79%.
Regarding `CC(C)c1ccc2c(c1)OCC(=O)CO2` [compound 1232, isopropyl-2H,4H-1,5-benzodioxepin-3-one, 7-], in the experiment with Aedes aegypti (0.016 mg/mL (Table 3)), the pest or weed control at 16 µg/mL came out at 0%. Further, in the experiment on Aedes aegypti (0.4 mg/mL (Table 3)), the pest or weed control at 400 µg/mL turned out to be 32%. Moreover, in the experiment with Aedes aegypti (10 mg/mL (Table 3)), the pest or weed control at 10000 µg/mL is 86%. In the experiment with Anopheles gambiae, the pest or weed control at 178 µg/mL is 27%, the pest or weed control at 267 µg/mL stood at 34%, the pest or weed control at 400 µg/mL amounted to 65% and the pest or weed control at 4470 µg/mL amounted to 91%. Further, the pest or weed control at 10000 µg/mL in the experiment with Anopheles gambiae turned out to be 86%.
Consider `COc1ccc(C=O)c(OC)c1` [compound 1558, 2,4-dimethoxybenzaldehyde], for which the pest or weed control at 16 µg/mL with Aedes aegypti (0.016 mg/mL (Table 3)) is 86%. For the same molecule, the pest or weed control at 400 µg/mL with Aedes aegypti (0.4 mg/mL (Table 3)) came out at 89%. Besides, the pest or weed control at 10000 µg/mL in the experiment with Aedes aegypti (10 mg/mL (Table 3)) turned out to be 86%. Besides, in the experiment with Aedes aegypti (setting [2]), the pest or weed control at 0.04 % is above 75%. Moreover, the pest or weed control at 0.0016 % with Aedes aegypti (setting [3]) is above 50%. Besides, in the experiment on Ixodes ricinus, the pest or weed control at 400 µg/mL was found to be 16.7%, the pest or weed control at 2000 µg/mL stood at 38.5% and the pest or weed control at 10000 µg/mL amounted to 91.7%.
As for `CC=Cc1cc(OC)ccc1OC` [compound 1196, 1,4-dimethoxy-2-[1-propen-1-yl]benzene], in the experiment with Aedes aegypti, the pest or weed control at 16 µg/mL was found to be 57%, the pest or weed control at 400 µg/mL stood at 74%, the pest or weed control at 10000 µg/mL amounted to 86% and the pest or weed control at 0.0016 % is above 50%.
Regarding `CCOc1cc(COC)ccc1O` [compound 1271, 2-ethoxy-4-(methoxymethyl)phenol], the pest or weed control at 16 µg/mL with Aedes aegypti (0.016 mg/mL (Table 3)) was found to be 29%. Besides, the pest or weed control at 400 µg/mL in the experiment with Aedes aegypti (0.4 mg/mL (Table 3)) was found to be 84%. Also, the pest or weed control at 10000 µg/mL with Aedes aegypti (10 mg/mL (Table 3)) worked out at 96%. Moreover, the pest or weed control at 1 % with Aedes aegypti (setting [1]) was above 90%. Moreover, the pest or weed control at 0.04 % in the experiment with Aedes aegypti (setting [2]) is above 75%. Further, in the experiment on Anopheles gambiae, the pest or weed control at 4470 µg/mL was found to be 95% and the pest or weed control at 10000 µg/mL came out at 92%.
As for `COc1cc(CO)cc(OC)c1OC` [compound 1968, (3,4,5-trimethoxyphenyl)methanol], the pest or weed control at 16 µg/mL in the experiment on Aedes aegypti (0.016 mg/mL (Table 3)) was determined as 23%. The pest or weed control at 400 µg/mL with Aedes aegypti (0.4 mg/mL (Table 3)) worked out at 38%. The pest or weed control at 10000 µg/mL in the experiment on Aedes aegypti (10 mg/mL (Table 3)) came to 100%. Also, in the experiment with Aedes aegypti (setting [1]), the pest or weed control at 1 % is above 90% and the “mosquito landing within the two minutes of experiments” value is “protect the attractive stimulus for any mosquito landing”.
`CCCc1ccc2c(c1)OC(C(C)=O)O2` (stereo not shown) [compound 908, 1-(5-propyl-1,3-benzodioxol-2-yl)ethanone]: in the experiment with Aedes aegypti (0.016 mg/mL (Table 3)), the pest or weed control at 16 µg/mL was found to be 10%. The pest or weed control at 400 µg/mL in the experiment on Aedes aegypti (0.4 mg/mL (Table 3)) amounted to 37%. The pest or weed control at 10000 µg/mL with Aedes aegypti (10 mg/mL (Table 3)) turned out to be 85%. For the same molecule, in the experiment on Anopheles gambiae, the pest or weed control at 178 µg/mL stood at 61%, the pest or weed control at 267 µg/mL was determined as 95%, the pest or weed control at 400 µg/mL came out at 51% and the pest or weed control at 4470 µg/mL is 74%. In addition, the pest or weed control at 10000 µg/mL with Anopheles gambiae is 84%.
For `COc1cc(C)cc(OC)c1OC` [compound 2250, 1,2,3-trimethoxy-5-methybenzene], the “Percentage of repellence of mosquitoes Aedes aegypti landing on the warm body” value is 21% in the experiment with Aedes aegypti (0.016 mg/mL (Table 3)), 57% with Aedes aegypti (0.4 mg/mL (Table 3)) and 100% in the experiment with Aedes aegypti (10 mg/mL (Table 3)). The “mosquito landing within the two minutes of experiments” value in the experiment on Aedes aegypti (setting [1]) is given as “protect the attractive stimulus for any mosquito landing”.
Turning to `COc1ccc(C(C)=O)c(OC)c1OC` [compound 2269, 1-(2,3,4-trimethoxyphenyl)ethanone], the pest or weed control at 16 µg/mL in the experiment on Aedes aegypti (0.016 mg/mL (Table 3)) turned out to be 18%. Besides, the pest or weed control at 400 µg/mL in the experiment on Aedes aegypti (0.4 mg/mL (Table 3)) stood at 70%. In addition, the pest or weed control at 10000 µg/mL in the experiment with Aedes aegypti (10 mg/mL (Table 3)) was 100%. In the experiment on Aedes aegypti (setting [1]), the pest or weed control at 1 % is above 90% and the “mosquito landing within the two minutes of experiments” value is “protect the attractive stimulus for any mosquito landing”.
Turning to `C=CCc1cc(OC)c(OC)c(OC)c1` [compound 1682, 1,2,3-trimethoxy-5-prop-2-enylbenzene], the pest or weed control at 16 µg/mL in the experiment on Aedes aegypti (0.016 mg/mL (Table 3)) was 0%. Moreover, in the experiment on Aedes aegypti (0.4 mg/mL (Table 3)), the pest or weed control at 400 µg/mL was 73%. For the same molecule, the pest or weed control at 10000 µg/mL with Aedes aegypti (10 mg/mL (Table 3)) is 90%. In the experiment with Aedes aegypti (setting [1]), the pest or weed control at 1 % is above 90%.
With `COc1cc(C=O)cc(OC)c1OC` [compound 2268, 3,4,5-trimethoxybenzaldehyde], in the experiment on Aedes aegypti, the pest or weed control at 16 µg/mL is 59%, the pest or weed control at 400 µg/mL was 88%, the pest or weed control at 10000 µg/mL was found to be 95% and the pest or weed control at 0.0016 % was above 50%. Also, in the experiment with Aedes aegypti, the pest or weed control at 0.04 % was above 75% and the pest or weed control at 1 % was above 90%.
For `COc1ccc(CCC(=O)O)cc1OC` [compound 1561, 3-(3,4-dimethoxyphenyl)propanoic acid], in the experiment with Aedes aegypti (0.016 mg/mL (Table 3)), the pest or weed control at 16 µg/mL came to 9%. In addition, in the experiment on Aedes aegypti (0.4 mg/mL (Table 3)), the pest or weed control at 400 µg/mL was 37%. Further, the pest or weed control at 10000 µg/mL with Aedes aegypti (10 mg/mL (Table 3)) stood at 84%.
